Experimental data from publication PMC6366416, “Synthesis and in vitro anticancer activity of certain novel 1-(2-methyl-6-arylpyridin-3-yl)-3-phenylureas as apoptosis-inducing agents” (Journal of Enzyme Inhibition and Medicinal Chemistry, 2019).

Tests used:
Assay in all cases: NCI one-dose SRB growth inhibition
Type in all cases: cell-based
EKVX = conditions: Homo sapiens, Non-Small Cell Lung Cancer, 48 h, read-out: GI% EKVX
Summary of the method: (§1)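 Growth inhibition read by SRB protein stain following 48 h treatment; NCI standard one-dose protocol.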

T-47D = conditions: Homo sapiens, T47D, 48 h, Breast Cancer, read-out: GI% T-47D
Summary of the method: as §1

KM12 = conditions: Homo sapiens, Colon Cancer, 48 h, read-out: GI% KM12
Summary of the method: as §1

U251 = conditions: Homo sapiens, U-251, CNS Cancer, 48 h, read-out: GI% U251
Summary of the method: as §1

M14 = conditions: Homo sapiens, M14, 48 h, Melanoma, read-out: GI% M14
Summary of the method: as §1

HCT-15 = conditions: Homo sapiens, HCT-15, 48 h, Colon Cancer, read-out: GI% HCT-15
Summary of the method: as §1

HCT-116 = conditions: Homo sapiens, HCT-116, 48 h, Colon Cancer, read-out: GI% HCT-116
Summary of the method: as §1

SR = conditions: Homo sapiens, 48 h, Leukemia, read-out: GI% SR
Summary of the method: as §1

SF-268 = conditions: Homo sapiens, CNS Cancer, 48 h, read-out: GI% SF-268
Summary of the method: as §1

SNB-19 = conditions: Homo sapiens, CNS Cancer, 48 h, read-out: GI% SNB-19
Summary of the method: as §1

UACC-62 = conditions: Homo sapiens, UACC-62, 48 h, Melanoma, read-out: GI% UACC-62
Summary of the method: as §1

HCC-2998 = conditions: Homo sapiens, Colon Cancer, 48 h, read-out: GI% HCC-2998
Summary of the method: as §1

SF-539 = conditions: Homo sapiens, CNS Cancer, 48 h, read-out: GI% SF-539
Summary of the method: as §1

OVCAR-4 = conditions: Homo sapiens, Ovarian Cancer, 48 h, read-out: GI% OVCAR-4
Summary of the method: as §1

RPMI-8226 = conditions: Homo sapiens, RPMI-8226, 48 h, Leukemia, read-out: GI% RPMI-8226
Summary of the method: as §1

SK-MEL-2 = conditions: Homo sapiens, Melanoma, 48 h, read-out: GI% SK-MEL-2
Summary of the method: as §1

SN12C = conditions: Homo sapiens, Renal Cancer, 48 h, read-out: GI% SN12C
Summary of the method: as §1

SK-OV-3 = conditions: Homo sapiens, Ovarian Cancer, 48 h, read-out: GI% SK-OV-3
Summary of the method: as §1

HS 578T = conditions: Homo sapiens, Breast Cancer, 48 h, read-out: GI% HS 578T
Summary of the method: as §1

SNB-75 = conditions: Homo sapiens, CNS Cancer, 48 h, read-out: GI% SNB-75
Summary of the method: as §1

HOP-62 = conditions: Homo sapiens, Non-Small Cell Lung Cancer, 48 h, read-out: GI% HOP-62
Summary of the method: as §1

COLO 205 = conditions: Homo sapiens, Colon Cancer, 48 h, read-out: GI% COLO 205
Summary of the method: as §1

SK-MEL-28 = conditions: Homo sapiens, Melanoma, 48 h, read-out: GI% SK-MEL-28
Summary of the method: as §1

UO-31 = conditions: Homo sapiens, Renal Cancer, 48 h, read-out: GI% UO-31
Summary of the method: as §1

786-0 = conditions: Homo sapiens, Renal Cancer, 48 h, read-out: GI% 786-0
Summary of the method: as §1

SK-MEL-5 = conditions: Homo sapiens, Melanoma, 48 h, read-out: GI% SK-MEL-5
Summary of the method: as §1

HT29 = conditions: Homo sapiens, HT-29, 48 h, Colon Cancer, read-out: GI% HT29
Summary of the method: as §1

OVCAR-5 = conditions: Homo sapiens, Ovarian Cancer, 48 h, read-out: GI% OVCAR-5
Summary of the method: as §1

PC-3 = conditions: Homo sapiens, PC-3, 48 h, Prostate, read-out: GI% PC-3
Summary of the method: as §1

LOX IMVI = conditions: Homo sapiens, Melanoma, 48 h, read-out: GI% LOX IMVI
Summary of the method: as §1

UACC-257 = conditions: Homo sapiens, UACC-257, read-out: GI% UACC-257, Melanoma, 48 h
Summary of the method: as §1

A498 = conditions: Homo sapiens, Renal Cancer, 48 h, read-out: GI% A498
Summary of the method: as §1

HOP-92 = conditions: Homo sapiens, Non-Small Cell Lung Cancer, 48 h, read-out: GI% HOP-92
Summary of the method: as §1

OVCAR-8 = conditions: Homo sapiens, Ovarian Cancer, 48 h, read-out: GI% OVCAR-8
Summary of the method: as §1

Row | SMILES | inhibition at 10 µM (EKVX) [%] | inhibition at 10 µM (T-47D) [%] | inhibition at 10 µM (KM12) [%] | inhibition at 10 µM (U251) [%] | inhibition at 10 µM (M14) [%] | inhibition at 10 µM (HCT-15) [%] | inhibition at 10 µM (HCT-116) [%] | inhibition at 10 µM (SR) [%] | inhibition at 10 µM (SF-268) [%] | inhibition at 10 µM (SNB-19) [%] | inhibition at 10 µM (UACC-62) [%] | inhibition at 10 µM (HCC-2998) [%] | inhibition at 10 µM (SF-539) [%] | inhibition at 10 µM (OVCAR-4) [%] | inhibition at 10 µM (RPMI-8226) [%] | inhibition at 10 µM (SK-MEL-2) [%] | inhibition at 10 µM (SN12C) [%] | inhibition at 10 µM (SK-OV-3) [%] | inhibition at 10 µM (HS 578T) [%] | inhibition at 10 µM (SNB-75) [%] | also measured
1 | Cc1nc(-c2ccc(F)cc2)ccc1NC(=O)Nc1ccc2c(c1)OCO2 [Compound 5d, 1-(Benzo[d][1, 3]dioxol-5-yl)-3-(6-(4-fluorophenyl)-2-methylpyridin-3-yl)urea] | < 10 | < 10 | 11 | < 10 | 37 | < 10 | 17 | 11 | < 10 | < 10 | 20 | < 10 | < 10 | < 10 | < 10 | < 10 | < 10 | < 10 | < 10 | < 10 | inhibition at 10 µM (HOP-62): < 10%; inhibition at 10 µM (COLO 205): < 10%; inhibition at 10 µM (SK-MEL-28): < 10%; inhibition at 10 µM (UO-31): < 10%; inhibition at 10 µM (786-0): < 10%; inhibition at 10 µM (SK-MEL-5): 19%; inhibition at 10 µM (HT29): 14%; inhibition at 10 µM (OVCAR-5): < 10%; inhibition at 10 µM (PC-3): < 10%; inhibition at 10 µM (LOX IMVI): 34%; inhibition at 10 µM (UACC-257): 15%; inhibition at 10 µM (A498): < 10%; inhibition at 10 µM (HOP-92): < 10%; inhibition at 10 µM (OVCAR-8): < 10%
2 | Cc1nc(-c2ccc(Cl)cc2)ccc1NC(=O)Nc1ccc2c(c1)OCO2 [Compound 5g, 1-(Benzo[d][1,3]dioxol-5-yl)-3-(6-(4-chlorophenyl)-2-methylpyridin-3-yl)urea] | < 10 | < 10 | < 10 | < 10 | 29 | < 10 | < 10 | 22 | < 10 | < 10 | 27 | < 10 | < 10 | < 10 | < 10 | < 10 | < 10 | < 10 | < 10 | < 10 | inhibition at 10 µM (HOP-62): < 10%; inhibition at 10 µM (COLO 205): < 10%; inhibition at 10 µM (SK-MEL-28): < 10%; inhibition at 10 µM (UO-31): < 10%; inhibition at 10 µM (786-0): < 10%; inhibition at 10 µM (SK-MEL-5): 17%; inhibition at 10 µM (HT29): 11%; inhibition at 10 µM (OVCAR-5): < 10%; inhibition at 10 µM (PC-3): < 10%; inhibition at 10 µM (LOX IMVI): 34%; inhibition at 10 µM (UACC-257): 25%; inhibition at 10 µM (A498): < 10%; inhibition at 10 µM (HOP-92): < 10%; inhibition at 10 µM (OVCAR-8): < 10%
3 | Cc1nc(-c2cccs2)ccc1NC(=O)Nc1ccc(F)cc1 [Compound 5h, 1-(4-Fluorophenyl)-3-(2-methyl-6-(thiophen-2-yl)pyridin-3-yl)urea] | < 10 | 15 | 18 | < 10 | < 10 | 26 | 22 | 18 | < 10 | < 10 | 18 | 14 | < 10 | < 10 | 24 | 24 | < 10 | < 10 | < 10 | < 10 | inhibition at 10 µM (HOP-62): < 10%; inhibition at 10 µM (COLO 205): < 10%; inhibition at 10 µM (SK-MEL-28): < 10%; inhibition at 10 µM (UO-31): 13%; inhibition at 10 µM (786-0): < 10%; inhibition at 10 µM (SK-MEL-5): 12%; inhibition at 10 µM (HT29): 12%; inhibition at 10 µM (OVCAR-5): < 10%; inhibition at 10 µM (PC-3): 19%; inhibition at 10 µM (LOX IMVI): < 10%; inhibition at 10 µM (UACC-257): 20%; inhibition at 10 µM (A498): < 10%; inhibition at 10 µM (HOP-92): < 10%; inhibition at 10 µM (OVCAR-8): < 10%
4 | CCOC(=O)c1ccc(NC(=O)Nc2ccc(-c3ccc(F)cc3)nc2C)cc1 [Compound 5c, Ethyl 4-(3-(6-(4-fluorophenyl)-2-methylpyridin-3-yl)ureido)benzoate] | < 10 | < 10 | < 10 | < 10 | 38 | < 10 | < 10 | 16 | < 10 | < 10 | 29 | < 10 | < 10 | < 10 | 13 | < 10 | < 10 | < 10 | < 10 | < 10 | inhibition at 10 µM (HOP-62): < 10%; inhibition at 10 µM (COLO 205): < 10%; inhibition at 10 µM (SK-MEL-28): < 10%; inhibition at 10 µM (UO-31): < 10%; inhibition at 10 µM (786-0): < 10%; inhibition at 10 µM (SK-MEL-5): 38%; inhibition at 10 µM (HT29): 18%; inhibition at 10 µM (OVCAR-5): < 10%; inhibition at 10 µM (PC-3): < 10%; inhibition at 10 µM (LOX IMVI): 24%; inhibition at 10 µM (UACC-257): 29%; inhibition at 10 µM (A498): < 10%; inhibition at 10 µM (HOP-92): < 10%; inhibition at 10 µM (OVCAR-8): < 10%
5 | CCOC(=O)c1ccc(NC(=O)Nc2ccc(-c3cccs3)nc2C)cc1 [Compound 5j, Ethyl 4-(3-(2-methyl-6-(thiophen-2-yl)pyridin-3-yl)ureido)benzoate] | < 10 | < 10 | 18 | 21 | 38 | 30 | 27 | 44 | < 10 | < 10 | < 10 | < 10 | < 10 | < 10 | 56 | 11 | < 10 | < 10 | < 10 | < 10 | inhibition at 10 µM (HOP-62): < 10%; inhibition at 10 µM (COLO 205): < 10%; inhibition at 10 µM (SK-MEL-28): < 10%; inhibition at 10 µM (UO-31): < 10%; inhibition at 10 µM (786-0): 12%; inhibition at 10 µM (SK-MEL-5): 22%; inhibition at 10 µM (HT29): 19%; inhibition at 10 µM (OVCAR-5): < 10%; inhibition at 10 µM (PC-3): 52%; inhibition at 10 µM (LOX IMVI): 10%; inhibition at 10 µM (UACC-257): < 10%; inhibition at 10 µM (A498): < 10%; inhibition at 10 µM (HOP-92): < 10%; inhibition at 10 µM (OVCAR-8): < 10%
